Measurements as given in patent publication US20250154150A1, “SUBSTITUTED FUSED RING COMPOUND, PHARMACEUTICAL COMPOSITION THEREOF, PREPARATION METHOD THEREFOR AND USES THEREOF” (SUZHOU YABAO PHARMACEUTICAL R&D CO., LTD., priority 2022, published 2025).
pIC50: −log10 of the molar value.

Assays:
[1] = target: LRRK2 G2019S (Homo sapiens (Human), UniProt Q5S007, G2019S); experiment: Kinase inhibition assay (ADP-Glo, LRRKtide substrate); assay type: biochemical; settings: LRRK2 G2019S protein, room temperature
Sequence of LRRK2 G2019S (Q5S007 whole entry G2019S): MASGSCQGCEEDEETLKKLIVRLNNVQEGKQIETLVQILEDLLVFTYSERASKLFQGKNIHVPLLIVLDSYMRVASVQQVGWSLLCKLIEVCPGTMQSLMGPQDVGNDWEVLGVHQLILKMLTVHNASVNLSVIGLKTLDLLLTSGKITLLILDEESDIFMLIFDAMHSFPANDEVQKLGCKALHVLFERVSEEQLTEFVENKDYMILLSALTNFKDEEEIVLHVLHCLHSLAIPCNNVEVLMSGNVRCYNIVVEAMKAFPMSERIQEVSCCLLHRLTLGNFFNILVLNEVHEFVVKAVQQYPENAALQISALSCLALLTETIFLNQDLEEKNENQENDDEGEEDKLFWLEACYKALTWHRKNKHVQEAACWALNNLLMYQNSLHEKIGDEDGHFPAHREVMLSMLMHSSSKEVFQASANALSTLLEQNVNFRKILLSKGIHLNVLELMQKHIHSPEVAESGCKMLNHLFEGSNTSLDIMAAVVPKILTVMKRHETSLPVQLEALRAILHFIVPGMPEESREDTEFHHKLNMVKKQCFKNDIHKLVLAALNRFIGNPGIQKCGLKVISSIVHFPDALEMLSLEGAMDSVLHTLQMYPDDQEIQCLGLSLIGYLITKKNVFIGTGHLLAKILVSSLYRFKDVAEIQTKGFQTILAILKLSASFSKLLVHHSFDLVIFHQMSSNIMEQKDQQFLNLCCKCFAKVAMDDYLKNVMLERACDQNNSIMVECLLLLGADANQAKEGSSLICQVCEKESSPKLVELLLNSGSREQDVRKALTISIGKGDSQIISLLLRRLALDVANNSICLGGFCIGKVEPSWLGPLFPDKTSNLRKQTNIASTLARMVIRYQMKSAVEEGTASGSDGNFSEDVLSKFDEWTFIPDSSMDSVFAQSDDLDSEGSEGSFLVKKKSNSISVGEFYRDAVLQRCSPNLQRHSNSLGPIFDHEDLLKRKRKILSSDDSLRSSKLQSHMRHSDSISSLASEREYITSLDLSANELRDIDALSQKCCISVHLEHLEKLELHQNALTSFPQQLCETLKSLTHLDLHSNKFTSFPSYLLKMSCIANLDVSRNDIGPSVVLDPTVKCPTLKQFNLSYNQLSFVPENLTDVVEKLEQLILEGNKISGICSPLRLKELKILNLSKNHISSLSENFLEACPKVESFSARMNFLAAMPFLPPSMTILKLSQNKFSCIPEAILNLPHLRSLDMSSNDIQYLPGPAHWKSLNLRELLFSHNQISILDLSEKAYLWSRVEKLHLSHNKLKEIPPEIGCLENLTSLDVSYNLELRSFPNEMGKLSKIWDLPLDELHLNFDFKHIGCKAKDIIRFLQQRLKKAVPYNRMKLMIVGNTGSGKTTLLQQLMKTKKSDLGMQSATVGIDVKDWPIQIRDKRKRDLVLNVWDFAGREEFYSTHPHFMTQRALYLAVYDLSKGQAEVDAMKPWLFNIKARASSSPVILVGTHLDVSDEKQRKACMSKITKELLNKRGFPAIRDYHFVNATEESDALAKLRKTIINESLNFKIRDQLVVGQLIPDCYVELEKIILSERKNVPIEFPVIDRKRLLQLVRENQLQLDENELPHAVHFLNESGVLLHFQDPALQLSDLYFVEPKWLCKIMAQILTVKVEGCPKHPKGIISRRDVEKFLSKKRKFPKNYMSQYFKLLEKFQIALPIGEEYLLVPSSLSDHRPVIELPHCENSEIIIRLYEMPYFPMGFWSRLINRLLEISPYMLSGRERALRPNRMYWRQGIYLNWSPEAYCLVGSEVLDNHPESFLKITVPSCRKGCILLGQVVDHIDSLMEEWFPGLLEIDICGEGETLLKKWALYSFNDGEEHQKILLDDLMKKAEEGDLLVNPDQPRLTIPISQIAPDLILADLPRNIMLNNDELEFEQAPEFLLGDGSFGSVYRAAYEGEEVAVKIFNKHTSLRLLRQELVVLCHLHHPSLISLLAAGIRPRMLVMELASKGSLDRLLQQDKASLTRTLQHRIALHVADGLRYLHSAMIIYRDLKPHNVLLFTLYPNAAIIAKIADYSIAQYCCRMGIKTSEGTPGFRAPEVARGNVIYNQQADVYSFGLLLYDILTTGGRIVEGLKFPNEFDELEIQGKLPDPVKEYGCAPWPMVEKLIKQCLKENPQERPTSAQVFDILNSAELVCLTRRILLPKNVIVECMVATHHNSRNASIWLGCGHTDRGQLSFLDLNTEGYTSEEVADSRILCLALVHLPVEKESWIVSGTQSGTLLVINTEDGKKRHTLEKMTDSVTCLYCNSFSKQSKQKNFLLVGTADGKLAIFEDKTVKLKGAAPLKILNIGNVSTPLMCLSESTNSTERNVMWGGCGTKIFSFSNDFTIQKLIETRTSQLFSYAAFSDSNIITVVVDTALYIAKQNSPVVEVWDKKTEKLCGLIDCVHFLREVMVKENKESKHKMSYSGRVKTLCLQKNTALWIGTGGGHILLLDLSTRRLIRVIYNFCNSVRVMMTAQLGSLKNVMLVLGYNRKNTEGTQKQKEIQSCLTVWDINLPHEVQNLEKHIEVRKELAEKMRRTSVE
Description: Kinase LRRK2 G2019S protein was derived from Carna, LRRKtide was derived from Signalchem, ATP was derived from Promega, and DMSO was derived from Sigma.
All assays were performed at room temperature. The test compounds were dissolved and diluted, and then added to a 384-well plate. 2.5 μL of 2× kinase reaction buffer was added, and the mixture was centrifuged. 2.5 μL of a mixture of 2× substrate and ATP was added, and the mixture was centrifuged. 4 μL of ADP-Glo reagent was added, and the mixture was incubated at room temperature for 40 min. 8 μL of […] was added, and the mixture was incubated at room temperature for 40 min. Then, the data were read using the Envision 2104 multi-label Reader.

[2] = target: LRRK2-2019S (Homo sapiens (Human), UniProt Q5S007, G2019S); experiment: HEK293 cell kinase inhibition assay (NanoBRET); assay type: cell-based; settings: HEK293 cells
Sequence of LRRK2-2019S (Q5S007 whole entry G2019S): as above
Description: (§1) HEK293 cells were cultured, and collected by adding trypsin. Culture medium was added, and the cell density was adjusted to 2×10^5/mL. Liposome-DNA complexes were constructed and mixed with HEK293 cells at a ratio of 1:20. The mixture was added to a 384-well plate, and incubated at 37° C. for 20-30 h. A mixed solution of enzyme substrate and the test compound was added, and the mixture was incubated at room temperature for 2-3 min. NanoBRET reagent (Promega) was added, and bioluminescence was measured within 10 min using the microplate reader (Envision 2104) at 450 nm for the donor luciferase protein (donor) and 610 nm for the acceptor fluorescent group (acceptor). The BRET ratio for the test compounds was calculated using the following formula, including a background correction option.
(§2) [formula] • Acceptorsample: 610 nm fluorescence with the test compound; • Donorsample: 450 nm fluorescence with the test compound; • Acceptorno-tracer control: 610 nm fluorescence of background (without the test compound); • Donorno-tracer control: 450 nm fluorescence of background (without the test compound)
(§3) The inhibitory activity of the test compounds on cellular LRRK2 enzyme was calculated by the following formula: […]
(§4) The IC50 values of the test compounds against cellular LRRK2 enzyme were calculated using Graphpad software. Non-linear regression fitting (dose-effect−variable slope method) was performed on the percentage inhibition rate versus logarithmic concentration curve of the compounds.
(§5) [formula] • X: logarithmic inhibitor concentration; Y: percentage inhibition rate; Bottom: a minimum value; Top: a maximum value; Hill Slope: hill slope

[3] = target: LRRK2-R1441C (Homo sapiens (Human), UniProt Q5S007, R1441C); experiment: HEK293 cell kinase inhibition assay (NanoBRET); assay type: cell-based; settings: HEK293 cells
Sequence of LRRK2-R1441C (Q5S007 whole entry R1441C): as the sequence (Q5S007 whole entry G2019S) above, with R1441C, S2019G counted along it
Description: as §1, §2, §3, §4, §5

[4] = target: LRRK2 (Homo sapiens (Human), UniProt Q5S007); experiment: HEK293 cell kinase inhibition assay (NanoBRET); assay type: cell-based; settings: HEK293 cells
Sequence of LRRK2 (Homo sapiens (Human), UniProt Q5S007) (Q5S007 whole entry): as the sequence (Q5S007 whole entry G2019S) above, with S2019G counted along it
Description: as §1, §2, §3, §4, §5

[5] = test system: LRRK2; experiment: In vivo efficacy, oral administration: LRRK2 phosphorylation (pS935-LRRK2/LRRK2) in brain tissue by Western blot; parameters: species or system LRRK2-G2019S mice
Description: 1. Objective: The study aims to determine the in vivo efficacy of compound 527 by observing the inhibition effect of compound 527 on the phosphorylation level of LRRK2 in the brains of G2019S mutant LRRK2 gene knock-in mice following oral administration.
(1) Animals: B6.Cg-Tg(Lrrk2*G2019S)2Yue/J transgenic mice were purchased from Jackson Laboratory. The mice were bred with C57BL/6J mice to produce LRRK2 heterozygote mice carrying the G2019S mutation (LRRK2-G2019S mice). The mice included an equal number of male and female individuals, with body weights ranging from 16-20 g and ages between 15-17 weeks.
(2) Grouping and administration: The mice were randomly divided into 5 experimental groups based on their body weights. Each group consisted of 8 animals, with 4 males and 4 females. The specific administration for each experimental group is detailed in the following Table 1. Group G1 served as the vehicle control group. For group G2 to group G5, compound 527 was administered at doses of 1 mg/kg, 3 mg/kg, 10 mg/kg, and 30 mg/kg, respectively.
(3) Intracerebral LRRK2 activity assay: One hour after administration, the animals were euthanized using CO2. The brain tissues were collected, rapidly frozen in liquid nitrogen, and then cryopreserved at −80 C until subsequent experiments. The brain tissues were homogenized in an RIPA buffer containing cOmplete™ protease inhibitor mixture (Roche, 04693124001) and phosphatase inhibitor mixture 2 (sigma, R^0278). Protein quantification was performed using the BCA method. The phosphorylation level of LRRK2 at pS935 site (primary antibody Anti-LRRK2 (phospho S935) antibody, abcam, ab133450), and the total LRRK2 level (primary antibody Anti-LRRK2 antibody, Abcam, ab33518) were detected by Western blot method. The activity level of LRRK2 in the brain was represented by the phosphorylation level at S935 site of LRRK2, i.e., the ratio of pS935-LRRK2 to total LRRK2 (pS935-LRRK2/LRRK2).

[6] = LRRK2-G2019S mice, oral gavage, single dose, brain collected 1 h after administration

SMILES	pIC50 [1]	further results
CC(C)n1cc(-c2n[nH]c3ccnc(NCC(F)(F)F)c23)cn1 [Compound 515]	7.56	–
C[C@H]1CN(c2cc(-c3n[nH]c4ccnc(N[C@H](C)C(F)(F)F)c34)ncn2)C[C@H](C)O1 [Compound 561]	8.89	–
C[C@@H]1C[C@H](Nc2nccc3[nH]nc(-c4cc(N5C[C@@H]6C[C@H]5CO6)ncn4)c23)C[C@H](C)O1 [Compound 424]	8.43	–
O[C@@H]1C[C@H](O)CN(c2cc(-c3n[nH]c4ccnc(NCC(F)(F)F)c34)ncn2)C1 [Compound 526, (3S,5R)-1-(6-(4-((2,2,2-trifluoroethyl)amino)-1H-pyrazolo[4,3-c]pyridin-3-yl)pyrimidin-4-yl)piperidine-3,5-diol]	8.29	–
N#CC1(c2cc(-c3n[nH]c4ccnc(NCC(F)(F)F)c34)ncn2)CCC1 [Compound 523, 1-(6-(4-((2,2,2-trifluoroethyl)amino)-1H-pyrazolo[4,3-c]pyridin-3-yl)pyrimidin-4-yl)cyclobutane-1-carbonitrile]	8.62	–
FC(F)(F)CNc1nccc2[nH]nc(-c3ccccn3)c12 [Control compound, reference compound]	7.92	–
C[C@@H]1CN(c2cc(-c3n[nH]c4ccnc(NC5(C)CC5)c34)ncn2)C[C@H](C)O1 [Compound 391]	8.02	–
C[C@@H]1CN(c2cc(-c3n[nH]c4ccnc(N[C@@H](C)C(F)(F)F)c34)ncn2)C[C@H](C)O1 [Compound 528]	8.80	–
FC(F)(F)CNc1nccc2[nH]nc(-c3cc(N4C5CCC4COC5)ncn3)c12 [Compound 520]	8.32	–
C[C@@H]1C[C@H](Nc2nccc3[nH]nc(-c4cc(N5C[C@@H](C)O[C@@H](C)C5)ncn4)c23)C[C@H](C)O1 [Compound 407, 3-(6-((2S,6R)-2,6-dimethylmorpholinyl)pyrimidin-4-yl)-N-((2R,4R,6S)-2,6-dimethyltetrahydro-2H-pyran-4-yl)-1H-pyrazolo[4,3-c]pyridine-4-amine]	8.66	–
C[C@@H]1CN(c2cc(-c3n[nH]c4ccnc(N[C@H](C)C(F)(F)F)c34)ncn2)C[C@H](C)O1 [Compound 527]	8.92	pIC50 [2]: 7.79; pIC50 [3]: 7.34; pIC50 [4]: 7.61; inhibition of the phosphorylation of LRRK2 in the brain tissues ([5]; 30 mg/kg oral gavage, 1 h, LRRK2-G2019S mice, stated as the definition of the maximum effective dose): 60%; effective dose for inhibiting the phosphorylation of LRRK2 in the brain tissues [5, 6]: 10 mg/kg; maximum effective dose (defined as 60% inhibition of the phosphorylation of LRRK2) [5, 6]: 30 mg/kg; human equivalent dose corresponding to the effective dose ([5]; calculated for a body weight of 70 kg, from 10 mg/kg in mice): 57 mg; human equivalent dose corresponding to the maximum effective dose ([5]; calculated for a body weight of 70 kg, from 30 mg/kg in mice): 171 mg
C[C@@H]1CN(c2cc(-c3n[nH]c4ccnc(NCC(F)(F)F)c34)ncn2)C[C@H](C)O1 [Compound 447]	8.55	pIC50 [2]: 7.01; pIC50 [3]: 6.53; pIC50 [4]: 6.61
FC(F)(F)CNc1nccc2[nH]nc(-c3cc(N4C[C@@H]5C[C@H]4CO5)ncn3)c12 [Compound 486]	8.51	–
FC(F)(F)CNc1nccc2[nH]nc(-c3cc(N4C[C@H]5C[C@@H]4CO5)ncn3)c12 [Compound 487]	8.62	–
C[C@@H]1C[C@H](Nc2nccc3[nH]nc(-c4cc(N5C[C@H]6C[C@@H]5CO6)ncn4)c23)C[C@H](C)O1 [Compound 425]	8.72	–
C[C@@H]1C[C@@H](Nc2nccc3[nH]nc(-c4cc(N5C[C@H]6C[C@@H]5CO6)ncn4)c23)C[C@H](C)O1 [Compound 440]	7.44	–
